Results: patent US20030153585A1, “Pharmaceutical preparations containing 2-pyrrolidone as the dissolving intermediary” (priority 2000, published 2003)
In brackets after ≈: the same amount, converted by molar mass.

Test: physchem
Conditions: water

COc1ccc(C(=O)N2CCCc3cc(C4=NNC(=O)SC4C)ccc32)cc1OC (stereo not shown) [thiadiazinone, 5-[1-(3,4-dimethoxybenzoyl)-1,2,3,4-tetrahydroquinolin-6-yl]-6-methyl-3,6-dihydro-1,3,4-thiadiazin-2-one]
solubility: 2 µg/mL (≈ 4.7 µM)
